Values joined by “and” are separate entries in the source; they are usually repeats but may differ in a detail not shown here. Equal values may be shown once. Numbers after ± are expanded uncertainties.
Conditions: for molar volume: 100 kPa, X-ray diffraction; for Triple point temperature: DSC

O=[N+]([O-])[O-].O=[N+]([O-])[O-].[Ca+2] [calcium nitrate]
Crystal 1
Conditions	molar volume
298 K	6.616e-05 ± 5.4e-08 m3/mol and 6.614e-05 ± 5.4e-08 m3/mol
323 K	6.637e-05 ± 5.4e-08 m3/mol and 6.638e-05 ± 5.4e-08 m3/mol
348 K	6.658e-05 ± 5.4e-08 m3/mol
373 K	6.68e-05 ± 5.4e-08 m3/mol
398 K	6.702e-05 ± 5.4e-08 m3/mol and 6.703e-05 ± 5.4e-08 m3/mol
423 K	6.725e-05 ± 5.4e-08 m3/mol and 6.726e-05 ± 5.4e-08 m3/mol
448 K	6.748e-05 ± 5.4e-08 m3/mol and 6.749e-05 ± 5.4e-08 m3/mol
473 K	6.771e-05 ± 5.4e-08 m3/mol and 6.773e-05 ± 5.4e-08 m3/mol
498 K	6.794e-05 ± 5.5e-08 m3/mol and 6.797e-05 ± 5.5e-08 m3/mol
523 K	6.818e-05 ± 5.5e-08 m3/mol and 6.821e-05 ± 5.5e-08 m3/mol
548 K	6.845e-05 ± 5.5e-08 m3/mol and 6.842e-05 ± 5.5e-08 m3/mol
573 K	6.871e-05 ± 5.5e-08 m3/mol and 6.866e-05 ± 5.5e-08 m3/mol
598 K	6.9e-05 ± 5.5e-08 m3/mol and 6.89e-05 ± 5.5e-08 m3/mol
623 K	6.92e-05 ± 5.5e-08 m3/mol and 6.915e-05 ± 5.5e-08 m3/mol
648 K	6.945e-05 ± 5.6e-08 m3/mol and 6.94e-05 ± 5.5e-08 m3/mol
673 K	6.97e-05 ± 5.6e-08 m3/mol and 6.967e-05 ± 5.6e-08 m3/mol
698 K	6.994e-05 ± 5.6e-08 m3/mol and 6.992e-05 ± 5.6e-08 m3/mol
723 K	7.019e-05 ± 5.6e-08 m3/mol

Conditions	Triple point temperature [K]
Crystal 1	823 ± 4
Crystal 2	290 ± 4
